Experimental data as given in ChEMBL document CHEMBL1201862, “PubChem BioAssay data set” (2004).
The source made the active and inactive calls.

Experiments:
[1] = enhancers of respiration in Yfh1-depleted yeast, dose response, Friedreich's ataxia, plus single-dose screen (AID 1465); assay type: functional;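 further: yeast depleted of Yfh1p frataxin homolog grown on glycerol needing respiration; WST-1 tetrazolium dye reduction as measure of cellular dehydrogenase metabolic activity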
[2] = target: Nonstructural protein 1 (Influenza A virus, UniProt Q194T2); assay type: functional, Influenza A virus (A/California/07/2009(H1N1))
Nonstructural protein 1, sequence (Q194T2 whole entry): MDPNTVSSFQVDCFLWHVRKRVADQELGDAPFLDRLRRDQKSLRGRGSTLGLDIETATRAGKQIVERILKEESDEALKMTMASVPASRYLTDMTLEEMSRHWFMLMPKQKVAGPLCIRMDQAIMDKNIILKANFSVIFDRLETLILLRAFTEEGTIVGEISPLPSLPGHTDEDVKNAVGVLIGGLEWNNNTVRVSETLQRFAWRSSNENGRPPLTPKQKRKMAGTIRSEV

[3] = cells; assay type: functional, cell-based
[4] = cells; assay type: functional, cell-based; remark: listed apart in the source
[5] = test system: HEK293; experiment: NOD2 signaling inhibitors in MDP-stimulated cells, cell-based, uHTS, luminescence (AID 2001); assay type: functional; settings: Homo sapiens
[6] = test system: HEK293; experiment: cells; assay type: functional, cell-based; settings: Homo sapiens
[7] = test system: HEK293; experiment: cells; assay type: functional, cell-based; settings: Homo sapiens; remark: listed apart in the source
[8] = target: T1, Bcl-2-like protein 10 (Homo sapiens, UniProt Q9HD36); experiment: Biochemical TR3 FP assay of Bcl-B inhibitor potency, EC50 (AID 1243); assay type: functional
T1 sequence (Q9HD36 whole entry): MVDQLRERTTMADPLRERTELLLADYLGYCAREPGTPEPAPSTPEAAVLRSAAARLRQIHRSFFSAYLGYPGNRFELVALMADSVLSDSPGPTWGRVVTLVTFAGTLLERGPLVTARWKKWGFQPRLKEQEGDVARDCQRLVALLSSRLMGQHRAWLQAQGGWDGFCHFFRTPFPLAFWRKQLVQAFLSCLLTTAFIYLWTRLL

[9] = test system: HEK293; experiment: NOD1 signaling inhibitors, primary screen, cell-based, luminescence, uHTS (AID 1578); assay type: functional; settings: Homo sapiens
[10] = target: T2, Neuropeptide Y receptor type 2 (Homo sapiens, UniProt P49146); assay type: functional, cell-based;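 further: HEK293 cells expressing the receptor and a CNG channel; stimulus was NPY near EC95 followed by isoproterenol to raise cAMP; antagonist potency measured as restoring cAMP signal that NPY suppresses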
T2 sequence (P49146 whole entry): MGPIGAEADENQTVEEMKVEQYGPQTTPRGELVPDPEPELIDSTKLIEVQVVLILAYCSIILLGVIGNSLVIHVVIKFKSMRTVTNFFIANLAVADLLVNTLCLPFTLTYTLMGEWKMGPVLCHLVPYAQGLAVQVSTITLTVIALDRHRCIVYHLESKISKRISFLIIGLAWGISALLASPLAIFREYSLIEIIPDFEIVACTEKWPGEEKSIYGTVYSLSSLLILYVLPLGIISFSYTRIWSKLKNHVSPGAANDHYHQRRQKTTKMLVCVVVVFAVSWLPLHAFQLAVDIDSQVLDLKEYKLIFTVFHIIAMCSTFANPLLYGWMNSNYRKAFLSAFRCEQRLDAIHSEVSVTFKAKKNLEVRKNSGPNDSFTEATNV

[11] = nonselective inhibitors of cellular cAMP signaling, dose response, counter-screen for MC4R biased antagonist project, cell-based, TR-FRET cAMP detection (AID 602305); assay type: functional;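 further: U2OS cells stimulated with forskolin near its EC80 as the cAMP inducer; potency is for inhibition of forskolin-stimulated cAMP signaling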
[12] = target: T3, Neuropeptide Y receptor type 1 (Homo sapiens, UniProt P25929); assay type: functional;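 further: HEK293 cells with a CNG channel challenged with NPY then isoproterenol; potency as antagonist that reverses NPY suppression of cAMP signal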
T3 sequence (P25929 whole entry): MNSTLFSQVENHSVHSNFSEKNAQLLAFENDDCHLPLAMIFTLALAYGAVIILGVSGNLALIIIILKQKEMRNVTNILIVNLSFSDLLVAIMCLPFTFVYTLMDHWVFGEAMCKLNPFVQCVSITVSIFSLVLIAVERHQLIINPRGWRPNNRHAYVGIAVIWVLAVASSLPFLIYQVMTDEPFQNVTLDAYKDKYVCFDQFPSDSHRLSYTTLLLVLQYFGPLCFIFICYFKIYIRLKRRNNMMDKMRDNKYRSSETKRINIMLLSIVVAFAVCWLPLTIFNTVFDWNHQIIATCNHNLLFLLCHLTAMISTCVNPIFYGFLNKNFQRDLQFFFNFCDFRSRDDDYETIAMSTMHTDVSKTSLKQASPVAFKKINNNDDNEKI

[13] = target: Melanocortin receptor 4 (Homo sapiens, UniProt P32245); experiment: MC4R antagonist potency on cAMP, dose response, cell-based, TR-FRET, biased antagonists (AID 602298); assay type: functional;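 further: antagonist potency against agonist-stimulated cAMP production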
Melanocortin receptor 4, sequence (P32245 whole entry): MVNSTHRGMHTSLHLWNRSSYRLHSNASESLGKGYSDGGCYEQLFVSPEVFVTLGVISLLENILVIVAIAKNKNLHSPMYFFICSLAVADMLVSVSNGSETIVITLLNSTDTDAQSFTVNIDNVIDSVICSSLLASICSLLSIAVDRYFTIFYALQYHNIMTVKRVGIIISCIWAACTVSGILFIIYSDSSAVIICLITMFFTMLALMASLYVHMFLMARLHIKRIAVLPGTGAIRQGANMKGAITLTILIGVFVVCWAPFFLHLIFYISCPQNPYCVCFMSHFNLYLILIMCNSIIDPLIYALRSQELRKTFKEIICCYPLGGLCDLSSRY

[14] = growth suppression of beta-catenin-knockout colon cells, dose response, cell-based, HCT116, human colon tumor (AID 1045); assay type: functional;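 further: HCT116 colon tumor cells with beta catenin knocked out; cells exposed to compound for 60 hours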
[15] = growth suppression of PTEN-null colon cells, dose response, cell-based, HCT116 PTEN knockout (AID 1047); assay type: functional;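 further: HCT116 colon tumor cells with PTEN knocked out; cells exposed to compound for 60 hours before readout; potency for loss of cell viability measured by luminescence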
[16] = target: Mucolipin-3 (Homo sapiens, UniProt Q8TDD5); experiment: Dose response cell-based high-throughput screening assay for agonists of the transient receptor potential channel ML3 (TRPML3). [Related pubchem assays: 1526, 1424, 1448 ]; assay type: functional
Mucolipin-3, sequence (Q8TDD5 whole entry): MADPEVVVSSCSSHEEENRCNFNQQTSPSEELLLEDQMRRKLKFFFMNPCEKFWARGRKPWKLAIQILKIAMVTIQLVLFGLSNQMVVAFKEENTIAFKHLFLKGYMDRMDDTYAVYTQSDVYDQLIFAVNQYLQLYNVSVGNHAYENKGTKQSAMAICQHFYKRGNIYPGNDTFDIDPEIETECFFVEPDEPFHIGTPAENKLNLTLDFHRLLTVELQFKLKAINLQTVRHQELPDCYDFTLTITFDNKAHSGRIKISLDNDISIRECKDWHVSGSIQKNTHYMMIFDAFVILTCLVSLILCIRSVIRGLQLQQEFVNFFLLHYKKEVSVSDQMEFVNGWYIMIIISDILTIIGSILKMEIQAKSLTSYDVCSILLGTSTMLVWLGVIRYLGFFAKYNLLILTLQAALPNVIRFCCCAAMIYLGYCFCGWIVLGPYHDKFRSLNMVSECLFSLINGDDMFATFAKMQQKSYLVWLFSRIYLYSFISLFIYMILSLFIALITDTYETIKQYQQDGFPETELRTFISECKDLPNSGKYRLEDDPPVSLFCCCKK

[17] = target: Ion channel NompC (Danio rerio, UniProt Q7T1G6); experiment: Fluorescence counterscreen assay for TRPML3 agonists: dose response cell-based high-throughput screening assay to identify agonists of the transient receptor potential channel N1 (TRPN1). [Related pubchem assays: 1526, 1424, 1448 ]; assay type: functional
Ion channel NompC, sequence (Q7T1G6 whole entry): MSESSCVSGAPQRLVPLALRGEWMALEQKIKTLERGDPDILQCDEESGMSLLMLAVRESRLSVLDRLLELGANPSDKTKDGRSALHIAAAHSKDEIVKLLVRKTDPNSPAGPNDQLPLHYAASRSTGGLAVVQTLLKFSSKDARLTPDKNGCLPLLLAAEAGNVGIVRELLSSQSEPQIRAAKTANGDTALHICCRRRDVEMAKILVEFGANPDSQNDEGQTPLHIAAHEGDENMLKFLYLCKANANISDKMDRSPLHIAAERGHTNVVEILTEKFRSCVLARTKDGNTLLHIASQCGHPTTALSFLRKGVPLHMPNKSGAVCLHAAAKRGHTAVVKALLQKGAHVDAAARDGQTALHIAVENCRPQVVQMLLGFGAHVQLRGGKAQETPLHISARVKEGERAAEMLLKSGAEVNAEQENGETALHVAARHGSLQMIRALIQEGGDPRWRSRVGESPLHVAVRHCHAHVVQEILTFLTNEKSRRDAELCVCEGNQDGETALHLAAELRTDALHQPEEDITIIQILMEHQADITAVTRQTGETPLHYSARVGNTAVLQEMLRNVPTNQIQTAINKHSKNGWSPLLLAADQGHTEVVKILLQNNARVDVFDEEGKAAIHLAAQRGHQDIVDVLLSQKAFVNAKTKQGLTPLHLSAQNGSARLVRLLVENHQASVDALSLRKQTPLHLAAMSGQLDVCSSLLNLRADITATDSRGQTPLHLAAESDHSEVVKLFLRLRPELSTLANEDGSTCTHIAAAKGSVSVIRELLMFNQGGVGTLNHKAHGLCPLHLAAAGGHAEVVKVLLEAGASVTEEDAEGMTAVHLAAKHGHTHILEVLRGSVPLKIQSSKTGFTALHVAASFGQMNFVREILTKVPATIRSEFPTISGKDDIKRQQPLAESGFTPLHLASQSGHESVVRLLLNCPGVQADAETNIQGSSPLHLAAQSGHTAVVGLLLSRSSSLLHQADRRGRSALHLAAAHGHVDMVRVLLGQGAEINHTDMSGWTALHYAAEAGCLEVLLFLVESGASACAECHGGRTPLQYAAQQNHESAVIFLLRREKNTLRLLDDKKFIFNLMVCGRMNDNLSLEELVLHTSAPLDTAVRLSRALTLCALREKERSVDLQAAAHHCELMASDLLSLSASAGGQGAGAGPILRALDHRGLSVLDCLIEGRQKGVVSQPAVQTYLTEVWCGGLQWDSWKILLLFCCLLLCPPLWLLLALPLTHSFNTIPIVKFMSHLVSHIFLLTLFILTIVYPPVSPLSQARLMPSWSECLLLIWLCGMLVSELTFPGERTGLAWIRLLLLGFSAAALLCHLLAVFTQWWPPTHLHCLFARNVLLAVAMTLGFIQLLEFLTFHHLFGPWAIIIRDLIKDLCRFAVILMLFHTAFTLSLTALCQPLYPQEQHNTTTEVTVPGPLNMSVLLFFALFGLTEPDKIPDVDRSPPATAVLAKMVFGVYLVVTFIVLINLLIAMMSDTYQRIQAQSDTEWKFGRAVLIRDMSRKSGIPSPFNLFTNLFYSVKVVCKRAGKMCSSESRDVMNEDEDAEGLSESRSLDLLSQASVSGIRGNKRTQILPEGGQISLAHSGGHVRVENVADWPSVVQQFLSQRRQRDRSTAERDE

[18] = target: Cytochrome P450 3A4 (Homo sapiens, UniProt P08684); settings: Potency;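 further: confirmatory qHTS run detecting inhibitors and substrates of CYP3A4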
Cytochrome P450 3A4, sequence (P08684 whole entry): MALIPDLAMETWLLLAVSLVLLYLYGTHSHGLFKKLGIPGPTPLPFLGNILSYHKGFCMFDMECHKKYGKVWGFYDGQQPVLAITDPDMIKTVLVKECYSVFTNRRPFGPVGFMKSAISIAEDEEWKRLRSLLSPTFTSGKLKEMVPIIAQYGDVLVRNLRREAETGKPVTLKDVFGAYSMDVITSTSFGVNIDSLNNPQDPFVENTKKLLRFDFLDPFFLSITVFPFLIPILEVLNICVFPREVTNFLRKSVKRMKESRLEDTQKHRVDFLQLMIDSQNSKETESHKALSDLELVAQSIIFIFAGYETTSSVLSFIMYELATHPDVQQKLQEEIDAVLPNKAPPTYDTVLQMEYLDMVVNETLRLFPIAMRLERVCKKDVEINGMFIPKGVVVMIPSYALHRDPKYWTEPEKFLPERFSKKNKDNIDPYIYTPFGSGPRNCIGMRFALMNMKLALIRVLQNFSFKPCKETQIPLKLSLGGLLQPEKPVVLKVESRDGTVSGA

[19] = target: Cytochrome P450 2D6 (Homo sapiens, UniProt P10635); experiment: qHTS Assay for Inhibitors and Substrates of Cytochrome P450 2D6. [Related pubchem assays: 410 ]; assay type: ADME; settings: read-out: Potency
Cytochrome P450 2D6, sequence (P10635 whole entry): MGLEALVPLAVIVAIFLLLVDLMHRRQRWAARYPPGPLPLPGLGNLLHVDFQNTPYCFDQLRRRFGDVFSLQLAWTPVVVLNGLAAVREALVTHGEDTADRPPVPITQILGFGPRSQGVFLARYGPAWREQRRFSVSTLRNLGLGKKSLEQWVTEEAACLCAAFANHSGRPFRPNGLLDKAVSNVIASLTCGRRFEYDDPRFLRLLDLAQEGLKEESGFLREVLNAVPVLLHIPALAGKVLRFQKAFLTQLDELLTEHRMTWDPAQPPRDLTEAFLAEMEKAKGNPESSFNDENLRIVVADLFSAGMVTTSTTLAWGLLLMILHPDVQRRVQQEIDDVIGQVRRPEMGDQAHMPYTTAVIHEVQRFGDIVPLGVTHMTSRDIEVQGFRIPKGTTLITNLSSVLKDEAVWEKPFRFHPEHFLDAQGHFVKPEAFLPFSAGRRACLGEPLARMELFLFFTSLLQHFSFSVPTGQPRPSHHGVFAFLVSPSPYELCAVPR

## COc1ccc(O)c(/C=N/NC(=S)Nc2cccc(S(=O)(=O)N(C)C)c2)c1
[1]
  EC50: > 100 µM (active)
[2]
  IC50: 8.98 µM (active)
[3]
  EC50: > 350 µM (not active)
[4]
  EC50: 10.8 µM (active)

## Nc1[nH]nc2ncc3cc4ccccc4nc3c12
[5]
  IC50: 8.23 µM (active)
[6]
  IC50: 7.35 µM (active)
[7]
  IC50: > 20 µM (inactive)
[8]
  EC50: 3.74 µM (active)
[9]
  EC50: 11.9 µM (active)

## COC(=O)C1=C(C(=O)OC)SC2(S1)C(C(=O)OC)=C(C(=O)OC)SC1=C2c2cccc(C)c2NC1(C)C
[10]
  IC50: > 35 µM (not active)
[11]
  IC50: > 64.6 µM (inactive)
[12]
  IC50: > 35 µM (not active)
[13]
  IC50: 3.83 µM (active)

## CC(c1ccccc1)N(NC(=O)C(O)(c1ccccc1)c1ccccc1)C(=O)c1ccccc1 (centres undefined)
[14]
  EC50: 11.3 µM (active)
[15]
  EC50: 13.9 µM (active)
[16]
  EC50: > 29.9 µM (not active)
[17]
  EC50: > 29.9 µM (not active)

## C=CCOCC/C=C1/c2ccccc2C(OC)C1C (centres undefined)
[18]
  AC50: 3.16 µM (inconclusive)
[19]
  AC50: 3.16 µM (inconclusive)
